Where two headings read alike, the source gives them in different places.
Target: T1, human LPA1 (Homo sapiens, UniProt Q92633)
T1 construct: expressed in transfected cells; host or cells: CHO-K1
Assay: In vitro LPA1 calcium flux antagonist assay - Bioduro protocol
Format: cell-based
Conditions: CHO-K1 cells overexpressing human LPA1 and G15a, LPA challenge at EC80
Summary of the method: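 CHO-K1 cells overexpressing human LPA1 and G15a, serum-starved 4 h, loaded with Fluo-8 AM plus 2.5 mM probenecid in HBSS/20 mM Hepes for 30 min at 37 °C. Compound preincubated 30 min, then LPA challenge at EC80; FLIPR calcium signal, % inhibition relative to DMSO and LPA controls.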

[1] = calcium mobilization on FLIPR Tetra, read-out: IC50
[2] = Table B3, read-out: Activity (IC50 class)

T1 sequence (Q92633 whole entry): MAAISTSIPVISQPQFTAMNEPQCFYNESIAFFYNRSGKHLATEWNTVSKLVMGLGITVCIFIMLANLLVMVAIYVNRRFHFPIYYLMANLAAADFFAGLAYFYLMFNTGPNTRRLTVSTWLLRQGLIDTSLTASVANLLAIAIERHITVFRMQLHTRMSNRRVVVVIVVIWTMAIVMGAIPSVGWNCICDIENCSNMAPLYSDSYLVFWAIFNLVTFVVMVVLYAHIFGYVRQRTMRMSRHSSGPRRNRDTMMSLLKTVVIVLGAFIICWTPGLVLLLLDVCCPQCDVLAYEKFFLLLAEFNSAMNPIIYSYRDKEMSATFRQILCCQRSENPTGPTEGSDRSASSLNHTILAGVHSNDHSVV

Row | Structure (SMILES) | IC50 [1] [nM] | IC50 [2] [nM]
1 | COc1cc(-c2ccc(NC3(C(=O)O)CC(OC)C3)cc2COC2Cc3ccccc3C2)cc(OC)c1C (single isomer, unassigned) [Compound 125] | 116 | 100 to 1000
2 | COc1cc(-c2ccc(OC3(C(=O)O)CCOCC3)cc2CO[C@@H]2CCOC2)c(F)c(OC)c1C [Compound 247] | 1610 | > 1000
3 | COc1cc(-c2ccc(NC3(C(=O)O)CCOCC3)cc2COC2CCCC2)c(C(F)F)c(OC)c1C [Compound 215] | 10.8 | < 100
4 | COc1cc(-c2ccc(NC3(C(=O)O)CCOCC3)cc2COC2CCCC2)cc(O)n1 [Compound 218] | > 10000 | > 1000
5 | CCOc1cc(OC)cc(-c2ccc(NC3(C(=O)O)CCOCC3)cc2COC2CC2)n1 [Compound 324] | > 10000 | > 1000
6 | COc1cc(-c2ccc(NC3(C(=O)O)CCOCC3)cc2CO[C@@H]2CCC[C@H]2OC)c(C)c(OC)c1C (racemic) [Compound 204] | 163 | 100 to 1000
7 | COc1cc(OC)cc(-c2ccc(NC3(C(=O)O)CCOCC3)cc2CCN2CCCC2=O)c1 [Compound 202] | > 10000 | > 1000
8 | COc1cc(OC2CC2)cc(-c2ccc(NC3(C(=O)O)CCOCC3)cc2COC2CCCC2)c1F [Compound 250] | 31.7 | < 100
9 | CCOc1cc(-c2ccc(NC3(C(=O)O)CCOCC3)cc2COC2CC2)cc(OC)c1C [Compound 329] | 61.9 | < 100
10 | COc1cc(-c2ccc(NC3(C(=O)O)CCOCC3)cc2COCC2(C#N)CC2)cc(OC)c1C [Compound 151] | 1580 | > 1000
11 | COc1cc(-c2ccc(NC3(C(=O)O)CCOCC3)cc2COC2Cc3ccccc3C2)cc(OC)c1C [Compound 111, 4-({2-[(2,3-dihydro-1H-inden-2-yloxy)methyl]-3′,5′-dimethoxy-4′-methyl-[1,1′-biphenyl]-4-yl}amino)oxane-4-carboxylic acid] | 19.8 | < 100
12 | COc1cc(-c2ccc(OC3(C(=O)O)CCOCC3)cc2COC2CCCC2)c(C)c(OC)c1C [Compound 191] | 34.3 | < 100
13 | COc1c(C)ccc(-c2ccc(NC3(C(=O)O)CCOCC3)cc2COC2CCCC2)c1C [Compound 181] | 55.2 | < 100
14 | CCc1cccc(-c2ccc(NC3(C(=O)O)CCOCC3)cc2COC2CC2)c1F [Compound 327] | 412 | 100 to 1000
15 | COc1cc(-c2ccc(NC3(C(=O)O)CCOCC3)cc2COC2CCCC2)cc(OC)c1C(C)=O [Compound 124] | 91.6 | < 100
16 | O=C(O)C1(Nc2ccc(-c3cccc(OC4CC4)c3C(F)F)c(COC3CC3)c2)CCOCC1 [Compound 322] | 5.9 | < 100
17 | CCOc1cc(-c2ccc(NC3(C(=O)O)CCOCC3)cc2COC2CCCC2)cc(OC)c1C [Compound 330] | 9.53 | < 100
18 | COc1c(C)c(OC)c(F)c(-c2ccc(NC3(C(=O)O)CCOCC3)cc2COC2CCCC2)c1F [Compound 270] | 79.8 | < 100
19 | COc1cc(-c2ccc(NC3(C(=O)O)CCOCC3)cc2COC2CC2)cc(OC2CC2)c1C [Compound 341] | 214 | 100 to 1000
20 | COc1cc(-c2ccc(NC3(C(=O)O)CCOCC3)cc2COC2CCC3(CC3)C2)cc(OC)c1C (stereo not drawn) [Compound 219] | 58 | < 100

Row | Structure (SMILES) | IC50 [1] [nM] | IC50 [2] [nM]
21 | COc1cc(-c2ccc(CC3(C(=O)O)CCOCC3)cc2COC2CCCC2)c(Cl)c(OC)c1C [Compound 236] | 4710 | > 1000
22 | CCOc1cccc(-c2ccc(NC3(C(=O)O)CCOCC3)cc2CCC2CC2)c1C(F)F [Compound 296] | 2.4 | < 100
23 | CCOc1cc(-c2ccc(NCCC(=O)O)cc2COC2Cc3ccccc3C2)cc(OCC)c1C [Compound 113] | 7130 | > 1000
24 | COc1cc(-c2ccc(NC3(C(=O)O)CCOCC3)cc2COC2CCCC2)cc(OC)c1C [Compound 134, 4-({2-[(cyclopentyloxy)methyl]-3′,5′-dimethoxy-4′-methyl-[1,1′-biphenyl]-4-yl}amino)-oxane-4-carboxylic acid] | 90.6 | < 100
25 | COc1cc(-c2ccc(NC3(C(=O)O)CCOCC3)cc2COC2CCCC2)c(F)c(OC)c1C [Compound 165] | 10.9 | < 100
26 | COc1cc(-c2ccc(NC3(C(=O)O)CCOCC3)cc2COC2CC3CC3C2)cc(OC)c1C (stereo not drawn) [Compound 182, 4-((2-((bicyclo[3.1.0]hexan-3-yloxy)methyl)-3′,5′-dimethoxy-4′-methyl-[1,1′-biphenyl]-4-yl)amino)tetrahydro-2H-pyran-4-carboxylic acid] | 9.7 | < 100
27 | COc1cc(-c2ccc(NC3(C(=O)O)CCN(C)CC3)cc2COC2CCCC2)cc(OC)c1C [Compound 138] | 174 | 100 to 1000
28 | COc1cc(-c2ccc(NC3(C(=O)O)CC(OC)C3)cc2COC2CCCC2)c(C)c(OC)c1C (stereo not drawn) [Compound 196] | 30.1 | < 100
29 | COC(=O)N1CCC(Nc2cc(C)c(-c3cc(OC)ccn3)c(COC3CCCC3)c2)(C(=O)O)CC1 [Compound 171] | > 10000 | > 1000
30 | COc1cc(-c2ccc(NC3(C(=O)O)CCOCC3)cc2COC2CCCC2)ccc1C [Compound 145] | 486 | 100 to 1000
31 | COc1cc(-c2ccc(NC3(C(=O)O)CC(O)C3)cc2COC2Cc3ccccc3C2)cc(OC)c1C (stereo not drawn) [Compound 130] | 191 | 100 to 1000
32 | CCc1c(-c2ccc(NC3(C(=O)O)CCOCC3)cc2COC2CCCC2)cc(OC)c(C)c1OC [Compound 203] | 26 | < 100
33 | COc1cc(-c2c(COC3CCCC3)cc(NC3(C(=O)O)CCOCC3)cc2OC)cc(OC)c1C [Compound 175] | 175 | 100 to 1000
34 | COc1cc(-c2ccc(NC3(C(=O)O)CCOCC3)cc2COC2CCCC2)cc(OC)c1C(F)F [Compound 274] | 28 | < 100
35 | CCOc1ccnc(-c2ccc(NC3(C(=O)O)CCOCC3)cc2COC2CC2)c1C(F)F [Compound 323] | 833 | 100 to 1000
36 | COc1cc(-c2ccc(OC3(C(=O)O)CCOCC3)cc2COC2CCCC2)c(F)c(OC)c1C [Compound 209, 4-((2-((cyclopentyloxy)methyl)-2′-fluoro-3′,5′-dimethoxy-4′-methyl-[1,1′-biphenyl]-4-yl)oxy)tetrahydro-2H-pyran-4-carboxylic acid] | 15.5 | < 100
37 | COc1cc(-c2c(C)cc(OC3(C(=O)O)CCOCC3)cc2COC2CCCC2)cc(OC)c1C [Compound 163] | 382 | 100 to 1000
38 | COc1cc(-c2ccc(C3(C(=O)O)CCOCC3)cc2COC2CCCC2)c(Cl)c(OC)c1C [Compound 235] | 198 | 100 to 1000
39 | COc1cc(-c2ccc(NC3(C(=O)O)CCNCC3)cc2COC2Cc3ccccc3C2)cc(OC)c1C [Compound 136] | 885 | > 1000

Second part, the compound after the results:

Row | IC50 [1] [nM] | IC50 [2] [nM] | Structure (SMILES)
40 | 229 | 100 to 1000 | CCOc1cncc(-c2ccc(NC3(C(=O)O)CCOCC3)c(F)c2COC2CC2)c1C(F)F [Compound 409]
41 | 75 | < 100 | COc1cc(-c2ccc(NC3(C(=O)O)CCOCC3)cc2COC(C)C)c(F)c(OC)c1C [Compound 352]
42 | 40.7 | < 100 | CCOc1c(C)ccc(-c2ccc(NC3(C(=O)O)CC3)cc2COC2CC2)c1C [Compound 368]
43 | 1.2 | < 100 | CCOc1cccc(-c2ccc(NC3(C(=O)O)CCOCC3)cc2CCC2CC2)c1F [Compound 373]
44 | 4850 | > 1000 | CCOc1cc(OC)cc(-c2ccc(NC3(C(=O)O)CCOCC3)cc2COC2CCCC2)n1 [Compound 363]
45 | 834 | 100 to 1000 | COc1cc(OC2CC2)cc(-c2ccc(OC3(C(=O)O)CCOCC3)cc2COC2CCCC2)c1 [Compound 378]
46 | 5.71 | < 100 | CCCCOCc1cc(NC2(C(=O)O)CCOCC2)ccc1-c1cc(OC)c(C)c(OC)c1C [Compound 401]
47 | 75.6 | < 100 | CCOc1c(C)c(OC)cc(-c2ccc(NC3(C(=O)O)CC3)cc2COC2CC2)c1F [Compound 361]
48 | 5.37 | < 100 | CCCCOCc1cc(NC2(C(=O)O)CCOCC2)ccc1-c1cc(OC)c(C)c(OCC)c1F [Compound 400]
49 | 106 | 100 to 1000 | COc1cc(OC2CC2)c(F)c(-c2ccc(OC3(C(=O)O)CCOCC3)cc2COC2CC2)c1 [Compound 344]
50 | 0.772 | < 100 | O=C(O)C1(Nc2ccc(-c3cccc(OC4CC4)c3C(F)F)c(COC3CC3)c2)CCC(F)(F)CC1 [Compound 389]
51 | 8.39 | < 100 | COc1cc(-c2ccc(NC3(C(=O)O)CCOCC3)cc2COCC2CCC2)c(F)c(OC)c1C [Compound 353]
52 | 14.6 | < 100 | CCOc1cccc(-c2ccc(OC3(C(=O)O)CCOCC3)cc2COC2CC2)c1Cl [Compound 374]
53 | 104 | 100 to 1000 | COc1cc(OC)c(Cl)c(-c2ccc(NC3(C(=O)O)CCOCC3)cc2COCC(C)C)c1 [Compound 398]
54 | 44.8 | < 100 | CCOc1c(C)ccc(-c2ccc(OC3(C(=O)O)CCOCC3)cc2COC2CC2)c1C [Compound 369]
55 | 22.3 | < 100 | CCOc1cccc(-c2ccc(OC3(C(=O)O)CCOCC3)cc2COC2CC2)c1C(F)F [Compound 371]
56 | 75.5 | < 100 | CCOc1cccc(-c2ccc(NC3(C(=O)O)CC3)cc2COC2CC2)c1C [Compound 360]
57 | 3.84 | < 100 | O=C(O)C1(Nc2ccc(-c3cccc(OC4CC4)c3Cl)c(COC3CC3)c2)CCC(F)(F)CC1 [Compound 386]

From patent US11884627B2, “Compounds and compositions for treating conditions associated with LPA receptor activity” (Lhotse Bio, Inc., priority 2022, dated 2024)
